Among the data in patent US20260317344A1, “EGFR INHIBITORS FOR TREATING DISEASE” (BLOSSOMHILL THERAPEUTICS, INC., priority 2023, published 2026) are IC50 values, retold here.

Each structure is given as a SMILES string.

For orientation: IC50 means the concentration that inhibits the measured activity by half.

The target in assay [1] is EGFR (L858R) (Homo sapiens, UniProt P00533, L858R). Put plainly: HotSpot radiometric kinase assay, inhibition of EGFR L858R mutant. In kind it is biochemical. As to conditions: 33P ATP, room temperature, 120 m. The procedure, abridged: (§1)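 Radiometric filter-binding format: ATP plus 33P-ATP ([…]) was added about 20 min after compound to kinase and substrate in HEPES pH 7.5 buffer with Mg2+, EGTA, Brij35, BSA, vanadate, DTT and 1% DMSO. After 120 min at room temperature, reactions were spotted on P81 paper and washed in phosphoric acid; IC50 values fitted.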
Chain of EGFR (L858R) (P00533 25-1210 L858R): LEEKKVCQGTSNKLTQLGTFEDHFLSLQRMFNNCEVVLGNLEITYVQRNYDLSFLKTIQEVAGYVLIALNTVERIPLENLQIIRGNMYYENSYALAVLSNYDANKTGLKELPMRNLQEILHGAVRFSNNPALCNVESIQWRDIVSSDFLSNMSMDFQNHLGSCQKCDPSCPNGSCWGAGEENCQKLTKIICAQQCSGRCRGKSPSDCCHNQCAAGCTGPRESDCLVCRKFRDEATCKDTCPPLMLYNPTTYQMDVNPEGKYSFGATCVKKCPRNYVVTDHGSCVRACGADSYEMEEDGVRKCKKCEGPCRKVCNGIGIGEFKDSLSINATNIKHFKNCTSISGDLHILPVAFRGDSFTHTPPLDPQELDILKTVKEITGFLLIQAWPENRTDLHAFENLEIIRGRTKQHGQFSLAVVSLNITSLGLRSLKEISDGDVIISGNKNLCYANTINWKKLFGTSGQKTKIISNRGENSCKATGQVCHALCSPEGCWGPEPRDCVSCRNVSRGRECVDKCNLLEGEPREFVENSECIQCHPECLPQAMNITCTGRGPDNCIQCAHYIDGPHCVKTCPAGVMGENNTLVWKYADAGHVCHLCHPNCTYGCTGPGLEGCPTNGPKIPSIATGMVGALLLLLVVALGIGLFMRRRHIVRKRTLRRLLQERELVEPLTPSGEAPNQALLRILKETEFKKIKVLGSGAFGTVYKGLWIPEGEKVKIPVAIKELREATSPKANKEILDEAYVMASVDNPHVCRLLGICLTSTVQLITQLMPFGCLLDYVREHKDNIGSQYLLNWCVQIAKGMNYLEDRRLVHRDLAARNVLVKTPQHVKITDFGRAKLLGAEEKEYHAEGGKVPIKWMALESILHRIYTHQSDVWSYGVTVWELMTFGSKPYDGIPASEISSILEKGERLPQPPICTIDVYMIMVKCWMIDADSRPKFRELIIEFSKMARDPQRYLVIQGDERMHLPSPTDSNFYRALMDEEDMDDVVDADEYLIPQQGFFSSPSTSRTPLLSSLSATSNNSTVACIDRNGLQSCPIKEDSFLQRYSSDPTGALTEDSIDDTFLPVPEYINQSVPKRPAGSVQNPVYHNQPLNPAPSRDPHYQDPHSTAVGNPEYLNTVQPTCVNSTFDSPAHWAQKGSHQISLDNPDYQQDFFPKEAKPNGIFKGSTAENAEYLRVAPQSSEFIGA

Assay [2] concerns the target EGFR (L858R/T790M) (Homo sapiens, UniProt P00533, L858R/T790M). The assay can be described thus: HotSpot radiometric kinase assay, inhibition of EGFR L858R/T790M mutant. To be noted: 33P ATP, room temperature, 120 m. In kind it is biochemical. A digest of the protocol: (§2)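 Kinase/substrate pairs in 20 mM HEPES pH 7.5, 10 mM MgCl2, 1 mM EGTA, 0.02% Brij35, 0.02 mg/ml BSA, 0.1 mM Na3VO4, 2 mM DTT, 1% DMSO, preincubated ~20 min with compound. Reaction started with ATP/33P-ATP ([…]), run 120 min at room temperature; phosphorylation read by P81 filter binding, IC50 from curve fits.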

Assay [3] has as its target EGFR (L858R/T790M/C797S) (Homo sapiens, UniProt P00533, C797S/L858R/T790M). Put plainly: HotSpot radiometric kinase assay, inhibition of EGFR L858R/T790M/C797S mutant. As to conditions: 33P ATP, room temperature, 120 m. The format is biochemical. The procedure, abridged: as §2
The target in assay [4] is EGFR (D746-750) (Homo sapiens, UniProt P00533, DEL746-750). The assay can be described thus: HotSpot radiometric kinase assay, inhibition of EGFR 746-750 mutant. As to conditions: 33P ATP, room temperature, 120 m. In kind it is biochemical. A digest of the protocol: as §2
For assay [5], the target named is EGFR (D746-750/C797S) (Homo sapiens, UniProt P00533, C797S/DEL746-750). The assay can be described thus: HotSpot radiometric kinase assay, inhibition of EGFR 746-750/C797S mutant. The format is biochemical. To be noted: 33P ATP, room temperature, 120 m. A digest of the protocol:
as §2

Assay [6] has as its target EGFR (D770_N771insNPG) (Homo sapiens, UniProt P00533, INS770NPG). Put plainly: HotSpot radiometric kinase assay, inhibition of EGFR (D770_N771insNPG) mutant. The format is biochemical. To be noted: 33P ATP, room temperature, 120 m. A digest of the protocol: as §2
Assay [7] addresses EGFR WT (Homo sapiens, UniProt P00533). Put plainly: HotSpot radiometric kinase assay, inhibition of EGFR WT. As to conditions: 33P ATP, room temperature, 120 m. In kind it is biochemical. A digest of the protocol:
as §1

Assay [8] concerns the target T1, pEGFR, PC-9 cells (d746-750 EGFR) (Homo sapiens, UniProt P00533, DEL746-750).
T1 construct: pEGFR (Tyr1068) TR-FRET
The assay can be described thus: Cellular EGFR phosphorylation assay (LANCE Ultra TR-FRET) in PC-9 cells. The format is cell-based. As to conditions: 4 hours at 37° C., read-out: PC-9 pEGFR IC50. A digest of the protocol: (§3)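 pEGFR Tyr1068 TR-FRET readout, lysates after 4 h compound exposure (37 °C, 5% CO2); 9-dose 3-fold series. A431 only: EGF 40 ng/mL for last 10 min. IC50 from curve fit.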

Assay [9] addresses T2, pEGFR, NCI-H1975 cells (L858R/T790M EGFR) (Homo sapiens, UniProt P00533, L858R/T790M).
T2 construct: pEGFR (Tyr1068) TR-FRET
Put plainly: Cellular EGFR phosphorylation assay (LANCE Ultra TR-FRET) in NCI-H1975 cells. The format is cell-based. To be noted: 4 hours at 37° C., read-out: H1975 pEGFR IC50. A digest of the protocol: as §3
(Time-resolved FRET reads energy transfer from a long-lived donor to a nearby acceptor.)

The target of assay [10] is T3, pEGFR, A431 cells (wildtype EGFR) (Homo sapiens, UniProt P00533).
T3 construct: pEGFR (Tyr1068) TR-FRET
T3 sequence (P00533 25-1210): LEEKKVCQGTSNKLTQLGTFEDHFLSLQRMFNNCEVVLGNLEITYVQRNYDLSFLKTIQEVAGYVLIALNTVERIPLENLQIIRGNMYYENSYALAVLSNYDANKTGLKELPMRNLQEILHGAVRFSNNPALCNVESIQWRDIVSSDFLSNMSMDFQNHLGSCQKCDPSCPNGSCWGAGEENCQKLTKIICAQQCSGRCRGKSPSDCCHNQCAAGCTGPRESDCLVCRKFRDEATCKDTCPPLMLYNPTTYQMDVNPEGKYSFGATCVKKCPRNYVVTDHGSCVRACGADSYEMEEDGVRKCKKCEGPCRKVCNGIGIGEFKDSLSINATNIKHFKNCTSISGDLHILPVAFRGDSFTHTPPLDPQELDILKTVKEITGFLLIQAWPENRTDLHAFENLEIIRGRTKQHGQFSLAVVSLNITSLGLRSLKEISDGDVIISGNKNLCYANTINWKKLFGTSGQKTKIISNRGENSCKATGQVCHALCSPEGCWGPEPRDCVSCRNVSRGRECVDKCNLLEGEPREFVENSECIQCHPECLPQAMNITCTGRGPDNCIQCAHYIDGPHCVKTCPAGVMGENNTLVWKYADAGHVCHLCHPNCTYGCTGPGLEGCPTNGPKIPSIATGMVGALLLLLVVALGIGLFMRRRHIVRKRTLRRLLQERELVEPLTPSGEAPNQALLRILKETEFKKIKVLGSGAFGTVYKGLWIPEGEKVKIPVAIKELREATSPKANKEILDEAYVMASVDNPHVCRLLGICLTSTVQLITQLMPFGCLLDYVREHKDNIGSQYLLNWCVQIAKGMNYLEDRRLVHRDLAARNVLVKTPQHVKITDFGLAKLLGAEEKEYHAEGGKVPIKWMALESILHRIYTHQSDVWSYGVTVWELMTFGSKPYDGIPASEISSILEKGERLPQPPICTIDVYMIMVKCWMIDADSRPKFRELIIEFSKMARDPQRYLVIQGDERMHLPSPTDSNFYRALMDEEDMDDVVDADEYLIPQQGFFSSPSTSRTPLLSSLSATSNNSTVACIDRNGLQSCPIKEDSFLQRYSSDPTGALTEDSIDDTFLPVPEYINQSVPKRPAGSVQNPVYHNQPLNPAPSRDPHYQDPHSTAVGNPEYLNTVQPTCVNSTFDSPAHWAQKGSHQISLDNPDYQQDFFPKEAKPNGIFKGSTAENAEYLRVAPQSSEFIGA
The assay can be described thus: Cellular EGFR phosphorylation assay (LANCE Ultra TR-FRET) in A431 cells. The format is cell-based. To be noted: 4 hours at 37° C., 40 ng/mL EGF for the final 10 minutes, read-out: A431 pEGFR IC50. The procedure, abridged: as §3

For assay [11], the system named is PC-9 cells. The assay can be described thus: 5-Day CellTiter Glo (CTG) cell proliferation assay, PC-9. The format is cell-based. As to conditions: Homo sapiens; PC-9 cells (d746-750 EGFR), 5-day CTG proliferation, 120 hours; read-out: PC-9 IC50. A digest of the protocol: (§4)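 Luminescent ATP signal (CellTiter-Glo 2.0) after 120 hours of compound exposure gave IC50 values. PC-9 and HCC827 harbour EGFR d746-750; NCI-H1975 harbours L858R/T790M.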
On the technique in general: In ATP-based viability assays light output follows the ATP content of the culture.

For assay [12], the system named is NCI-H1975 cells. The assay can be described thus: 5-Day CellTiter Glo (CTG) cell proliferation assay, NCI-H1975. The format is cell-based. As to conditions: Homo sapiens; NCI-H1975 cells (L858R/T790M EGFR), 5-day CTG proliferation, 120 hours; read-out: H1975 IC50. A digest of the protocol:
as §4

For assay [13], the system named is HCC827 cells. The assay can be described thus: 5-Day CellTiter Glo (CTG) cell proliferation assay, HCC827. As to conditions: Homo sapiens; HCC827 cells (d746-750 EGFR), 5-day CTG proliferation, 120 hours; read-out: HCC827 IC50. The format is cell-based. A digest of the protocol: as §4
Assay [14] has as its system BaF3 cells with engineered EGFR L858R/T790M/C797S. Put plainly: 3-Day CellTiter Glo (CTG) cell proliferation assay, BaF3 EGFR L858R/T790M/C797S. As to conditions: Mus musculus, 3-day CTG proliferation, 72 hours. The format is cell-based. A digest of the protocol:
(§5)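 Luminescent ATP read-out (CellTiter-Glo 2.0) after 72 h compound exposure gives IC50 values. BaF3 transgenic cells, one thousand per well, received a nine-dose series and were kept at 37 °C under 5% CO2.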

The test system of assay [15] is BaF3 cells with engineered EGFR L858R/C797S. The assay can be described thus: 3-Day CellTiter Glo (CTG) cell proliferation assay, BaF3 EGFR L858R/C797S. The format is cell-based. As to conditions: Mus musculus, 3-day CTG proliferation, 72 hours. The procedure, abridged:
as §5

Assay [16] relates to BaF3 cells with engineered EGFR d746-750/T790M. The assay can be described thus: 3-Day CellTiter Glo (CTG) cell proliferation assay, BaF3 EGFR d746-750/T790M. In kind it is cell-based. To be noted: Mus musculus; BaF3 EGFR d746-750/T790M cells, 3-day CTG proliferation, 72 hours. The procedure, abridged: as §5

Chain of EGFR WT (P00533 25-1210): as above
Chain of EGFR (L858R/T790M/C797S) (P00533 25-1210 T790M/C797S/L858R): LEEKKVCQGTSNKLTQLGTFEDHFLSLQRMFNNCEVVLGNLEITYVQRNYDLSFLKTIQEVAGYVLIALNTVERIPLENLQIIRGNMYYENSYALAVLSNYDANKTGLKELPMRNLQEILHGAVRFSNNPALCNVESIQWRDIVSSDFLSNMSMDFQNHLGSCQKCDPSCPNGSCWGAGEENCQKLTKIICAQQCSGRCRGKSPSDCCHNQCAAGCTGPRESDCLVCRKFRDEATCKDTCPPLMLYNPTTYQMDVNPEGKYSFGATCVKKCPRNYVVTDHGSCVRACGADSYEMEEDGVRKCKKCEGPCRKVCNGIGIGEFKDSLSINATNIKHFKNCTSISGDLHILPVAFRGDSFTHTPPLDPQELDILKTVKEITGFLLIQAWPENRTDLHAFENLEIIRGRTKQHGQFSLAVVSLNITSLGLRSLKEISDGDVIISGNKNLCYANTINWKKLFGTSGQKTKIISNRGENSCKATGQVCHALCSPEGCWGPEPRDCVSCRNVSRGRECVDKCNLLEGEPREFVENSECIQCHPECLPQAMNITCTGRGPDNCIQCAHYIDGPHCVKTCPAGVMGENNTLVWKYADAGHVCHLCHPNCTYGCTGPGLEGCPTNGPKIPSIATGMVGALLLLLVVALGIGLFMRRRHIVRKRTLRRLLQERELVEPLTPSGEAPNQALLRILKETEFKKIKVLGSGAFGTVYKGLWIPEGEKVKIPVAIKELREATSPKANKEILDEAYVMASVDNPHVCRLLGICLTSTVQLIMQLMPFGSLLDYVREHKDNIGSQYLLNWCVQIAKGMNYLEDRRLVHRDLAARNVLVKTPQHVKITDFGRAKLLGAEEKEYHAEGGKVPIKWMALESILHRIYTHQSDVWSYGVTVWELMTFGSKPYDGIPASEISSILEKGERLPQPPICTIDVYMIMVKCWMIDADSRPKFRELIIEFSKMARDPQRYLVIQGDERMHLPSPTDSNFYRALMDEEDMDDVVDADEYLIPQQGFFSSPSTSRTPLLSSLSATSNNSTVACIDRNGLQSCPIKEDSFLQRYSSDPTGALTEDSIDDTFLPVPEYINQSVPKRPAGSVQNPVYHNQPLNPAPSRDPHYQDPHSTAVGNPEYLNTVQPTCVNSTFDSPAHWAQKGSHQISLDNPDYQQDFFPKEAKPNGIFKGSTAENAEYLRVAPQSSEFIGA

`Cc1nn(C)c2c1-c1cc3c(n[nH]c3cn1)/C=C/c1c(OCC#N)nn(CCO)c1CN(C)C[C@H](C)O2` [Ex. 22, {[(10S,17E)-14-(2-hydroxyethyl)-6,8,10,12-tetramethyl-2,10,11,12,13,14-hexahydro-8H-5,3-(azenometheno)tripyrazolo[3,4-f:3′,4′-j:4″,3″-n][1,4]oxazacyclopentadecin-16-yl]oxy}acetonitrile]: the half-inhibitory concentration (IC50) in assay [1] was 1450 pM; in assay [2], 730 pM; in [3], 520 pM; in assay [4], 300 pM; in assay [5], 1270 pM; in assay [6] it was 280 pM. Moreover, the IC50 in [7] is 410 pM; in [8], 5670 pM; in assay [9] it was 6810 pM; in assay [10] it was 67500 pM; in assay [11], 7120 pM; in [12], 19800 pM. For the same compound, the IC50 in assay [13] was 870 pM; in assay [14], 4390 pM; in assay [15] it was 560 pM; in assay [16] it was 5770 pM.
For `CCN1Cc2c(c(OCC#N)nn2CCO)/C=C/c2n[nH]c3cnc(cc23)-c2c(C)nn(C)c2O[C@@H](C)C1` [Ex. 23, {[(10S,17E)-12-ethyl-14-(2-hydroxyethyl)-6,8,10-trimethyl-2,10,11,12,13,14-hexahydro-8H-5,3-(azenometheno)tripyrazolo[3,4-f:3′,4′-j:4″,3″-n][1,4]oxazacyclopentadecin-16-yl]oxy}acetonitrile], the IC50 in assay [1] is 1020 pM; in [2] it was 600 pM; in assay [3] it was 470 pM; in assay [4], 360 pM; in [5], 1010 pM; in assay [6], 290 pM. Besides, the IC50 in assay [7] was 310 pM; in assay [8] it was 3420 pM; in [9], 5840 pM; in assay [10] it was 43100 pM; in [11], 2910 pM; in assay [12], 10000 pM. Further, the IC50 in assay [13] stood at 410 pM; in [14], 2690 pM; in assay [15] it was 430 pM; in assay [16], 3770 pM.
For `CCOc1nn([C@@H](C)CO)c2c1/C=C/c1n[nH]c3cnc(cc13)-c1c(C)nn(C)c1O[C@H](C)CN(CC)C2` [Ex. 24, (2S)-2-[(10R,17E)-16-ethoxy-12-ethyl-6,8,10-trimethyl-2,8,10,11,12,13-hexahydro-14H-5,3-(azenometheno)tripyrazolo[3,4-f:3′,4′-j:4″,3″-n][1,4]oxazacyclopentadecin-14-yl]propan-1-ol], the half-maximal inhibitory concentration (IC50) in assay [1] was found to be 1680 pM; in [2], 940 pM; in [3] it was 570 pM; in assay [4] it was 510 pM; in assay [5], 1080 pM; in assay [6], 620 pM. Also, the IC50 turned out to be 500 pM in assay [7]; 1500 pM in assay [8]; 1600 pM in [9]; 22400 pM in assay [10]; 470 pM in assay [11]; 1260 pM in assay [12]. For the same compound, the IC50 stood at 270 pM in assay [13], 780 pM in assay [14], 110 pM in assay [15] and 410 pM in assay [16].
On to `CCOc1nn([C@@H](C)CO)c2c1/C=C/c1n[nH]c3cnc(cc13)-c1c(C)nn(C)c1OC[C@H](C)N(CC)C2` [Ex. 25, (2S)-2-[(11S,17E)-16-ethoxy-12-ethyl-6,8,11-trimethyl-2,8,10,11,12,13-hexahydro-14H-5,3-(azenometheno)tripyrazolo[3,4-f:3′,4′-j:4″,3″-n][1,4]oxazacyclopentadecin-14-yl]propan-1-ol], for which the IC50 in [1] stood at 1880 pM; in assay [2], 1390 pM; in assay [3], 510 pM; in assay [4] it was 510 pM; in assay [5], 1020 pM; in assay [6] it was 1230 pM. Further, the IC50 in assay [7] turned out to be 550 pM; in assay [8], 1240 pM; in [9] it was 1930 pM; in [10], 17900 pM; in [11], 2970 pM; in assay [12], 10300 pM. Further, the 50% inhibitory concentration (IC50) in assay [13] stood at 460 pM; in [14], 850 pM; in assay [15] it was 130 pM; in assay [16], 630 pM.
In the case of `CCOc1nn([C@@H](C)CO)c2c1/C=C/c1n[nH]c3cnc(cc13)-c1c(C)nn(C)c1O[C@@H](C)CN(CC)C2` [Ex. 26, (2S)-2-[(10S,17E)-16-ethoxy-12-ethyl-6,8,10-trimethyl-2,8,10,11,12,13-hexahydro-14H-5,3-(azenometheno)tripyrazolo[3,4-f:3′,4′-j:4″,3″-n][1,4]oxazacyclopentadecin-14-yl]propan-1-ol], the IC50 in assay [1] amounted to 2390 pM; in assay [2], 1440 pM; in assay [3], 930 pM; in [4], 730 pM; in assay [5] it was 1970 pM; in [6], 900 pM. Further, the IC50 turned out to be 800 pM in [7]; 1600 pM in assay [8]; 3400 pM in [9]; 12200 pM in [10]; 440 pM in assay [11]; 1110 pM in assay [12]. Also, the IC50 in assay [13] turned out to be 270 pM; in [14], 1160 pM; in assay [15], 110 pM; in assay [16] it was 660 pM.
For the compound `CCOc1nn([C@@H](C)CO)c2c1/C=C/c1n[nH]c3cnc(cc13)-c1c(C)nn(C)c1O[C@@H](C)CN(C)C2` [Ex. 27, (2S)-2-[(10S,17E)-16-ethoxy-6,8,10,12-tetramethyl-2,8,10,11,12,13-hexahydro-14H-5,3-(azenometheno)tripyrazolo[3,4-f:3′,4′-j:4″,3″-n][1,4]oxazacyclopentadecin-14-yl]propan-1-ol], the 50% inhibitory concentration (IC50) in assay [1] is 890 pM; in assay [2], 510 pM; in assay [3], 450 pM; in assay [4] it was 280 pM; in [5], 900 pM; in assay [6], 270 pM. The IC50 turned out to be 310 pM in assay [7]; 910 pM in [8]; 1850 pM in assay [9]; 12500 pM in assay [10]; 450 pM in assay [11]; 970 pM in assay [12]. Also, the IC50 was 260 pM in [13], 730 pM in [14], 70 pM in assay [15] and 550 pM in [16].
